Test results reported in ChEMBL document CHEMBL1201862, “PubChem BioAssay data set” (2004).
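Where inhibition never reached the appropriate level, the endpoint shown equals the highest concentration tested. Otherwise, values were interpolated linearly from a five-concentration, 48-hour dose response in 96-well plates. The concentration for 50% growth inhibition is given as GI50.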 Calls of active or inactive are those of the source. Rule as the data show it: active = GI50 up to about 1.1 µM and inactive = higher.

Key:
Assay in all cases: inhibition of tumour cell growth, NCI panel, 48 h
LOX IMVI = test system: LOX IMVI
KM12 = test system: KM12
OVCAR-8 = test system: OVCAR-8
MDA-MB-435 = test system: MDA-MB-435
SK-MEL-28 = test system: SK-MEL-28
MOLT-4 = test system: MOLT-4
MCF7 = test system: MCF7
MDA-MB-231 = test system: MDA-MB-231
NCI/ADR-RES = test system: NCI/ADR-RES
HCT-116 = test system: HCT-116
A549 = test system: A549
OVCAR-5 = test system: OVCAR-5
SK-OV-3 = test system: SK-OV-3
NCI-H23 = test system: NCI-H23
HL-60 = test system: HL-60
SK-MEL-5 = test system: SK-MEL-5
Malme-3M = test system: Malme-3M
IGROV-1 = test system: IGROV-1
HOP-62 = test system: HOP-62
A498 = test system: A498

SMILES | GI50 (LOX IMVI) | GI50 (KM12) | GI50 (OVCAR-8) | GI50 (MDA-MB-435) | GI50 (SK-MEL-28) | GI50 (MOLT-4) | GI50 (MCF7) | GI50 (MDA-MB-231) | GI50 (NCI/ADR-RES) | GI50 (HCT-116) | GI50 (A549) | GI50 (OVCAR-5) | GI50 (SK-OV-3) | GI50 (NCI-H23) | GI50 (HL-60) | GI50 (SK-MEL-5) | GI50 (Malme-3M) | GI50 (IGROV-1) | GI50 (HOP-62) | GI50 (A498)
COc1ccc2nc(-c3cccc(N(C)C)c3)cc(O)c2c1 | 0.334 µM (active) | 0.337 µM (active) | 0.186 µM (active) | 0.0726 µM (active) | 0.419 µM (active) | 0.344 µM (active) | 0.413 µM (active) | 0.594 µM (active) | 0.185 µM (active) | 0.101 µM (active) | 0.147 µM (active) | 0.541 µM (active) | 0.327 µM (active) | 0.111 µM (active) | 0.187 µM (active) | 0.211 µM (active) | 0.177 µM (active) | 0.553 µM (active) |  | 
O=C(NN=C1CCCCC1)Nc1ccccc1Cl | 53.7 µM (inactive) | 38.3 µM (inactive) | 62.5 µM (inactive) | 16.6 µM (inactive) | 79.3 µM (inactive) | 47.8 µM (inactive) | 34.2 µM (inactive) | > 100 µM (inactive) | 24.1 µM (inactive) | 48.8 µM (inactive) | 81.7 µM (inactive) | 54.2 µM (inactive) | 55.6 µM (inactive) | 57.8 µM (inactive) | 29.6 µM (inactive) | 27.3 µM (inactive) | 40.3 µM (inactive) | 26.5 µM (inactive) |  | 
c1ccc2c(c1)c1c(n2CCOCCN2CCCC2)CCCC1 | 18.5 µM (inactive) | > 10 µM (inactive) | 22.4 µM (inactive) | 18.9 µM (inactive) | 16 µM (inactive) | 16.7 µM (inactive) | 16 µM (inactive) | 16.4 µM (inactive) | 19 µM (inactive) | 17.1 µM (inactive) | 28.1 µM (inactive) | 17.8 µM (inactive) | 31.3 µM (inactive) | 22.6 µM (inactive) | 12.2 µM (inactive) | 15.2 µM (inactive) | 17.1 µM (inactive) | 23.7 µM (inactive) | 15.5 µM (inactive) | 
Cc1ccc(SC2C(=O)C3CC(OCc4ccccc4)C2(C)C3(C)C)cc1 (stereo not given) |  | > 100 µM (inactive) | > 100 µM (inactive) | > 100 µM (inactive) | > 100 µM (inactive) | 13 µM (inactive) | > 100 µM (inactive) | > 100 µM (inactive) | > 100 µM (inactive) | 9.66 µM (inactive) | > 100 µM (inactive) | > 100 µM (inactive) | > 100 µM (inactive) | 46.8 µM (inactive) | 37.9 µM (inactive) | > 100 µM (inactive) | > 100 µM (inactive) | > 100 µM (inactive) | > 100 µM (inactive) | > 100 µM (inactive)
CC1=NC(=Cc2cc(Br)cc(Br)c2)C(=O)N1n1c(-c2ccccc2)nc2ccccc2c1=O | > 100 µM (inactive) | > 100 µM (inactive) | > 100 µM (inactive) | 72.3 µM (inactive) | > 100 µM (inactive) | > 100 µM (inactive) | > 100 µM (inactive) | > 100 µM (inactive) | > 100 µM (inactive) | > 100 µM (inactive) | > 100 µM (inactive) | > 100 µM (inactive) | > 100 µM (inactive) | > 100 µM (inactive) | > 100 µM (inactive) | > 100 µM (inactive) | > 100 µM (inactive) | > 100 µM (inactive) | > 100 µM (inactive) | 
C=CCOC(=O)CCCCCCCCCCCCCCCOC(=O)c1c(CCC[C@@H](C)O[Si](C)(C)C(C)(C)C)nc([O-])[n+]2c1CC[C@H]2CC1(CC/C=C\[C@H](CC)O[Si](C(C)C)(C(C)C)C(C)C)OCCO1 |  | 85.9 µM (inactive) |  | > 100 µM (inactive) | > 100 µM (inactive) |  | 53.5 µM (inactive) | 18.6 µM (inactive) | > 100 µM (inactive) | 47.1 µM (inactive) | 55 µM (inactive) | 30.1 µM (inactive) | > 100 µM (inactive) | > 100 µM (inactive) |  | 21.9 µM (inactive) | > 100 µM (inactive) |  | 48.6 µM (inactive) | > 100 µM (inactive)
OC12CC3c4ccccc4NC3C3Oc4cccc5c4C31CCN(CC1CC1)C2C5 (stereo not given) | 15.9 µM (inactive) | 18.8 µM (inactive) | 16.4 µM (inactive) | 17.9 µM (inactive) | 13.8 µM (inactive) | 15.5 µM (inactive) | 17.8 µM (inactive) | 17.9 µM (inactive) | 21.2 µM (inactive) | 16.8 µM (inactive) | 18.4 µM (inactive) | 21.1 µM (inactive) | 18.7 µM (inactive) | 13 µM (inactive) |  | 16.8 µM (inactive) | 19.7 µM (inactive) | 15.5 µM (inactive) | 18.5 µM (inactive) | 17.9 µM (inactive)
CC1(C)O[C@@H](CO)[C@H]([C@@]23OC[C@H]4OC(C)(C)OC4[C@@H]2OC(C)(C)O3)O1 (stereo not given in full) | > 100 µM (inactive) | > 100 µM (inactive) | > 100 µM (inactive) | > 100 µM (inactive) | > 100 µM (inactive) | > 100 µM (inactive) | > 100 µM (inactive) | > 100 µM (inactive) | > 100 µM (inactive) | > 100 µM (inactive) | > 100 µM (inactive) | > 100 µM (inactive) | > 100 µM (inactive) | > 100 µM (inactive) | > 100 µM (inactive) | 20.3 µM (inactive) | > 100 µM (inactive) | > 100 µM (inactive) | > 100 µM (inactive) | 
Cc1ccc(/N=N/C(=N/NC(=O)c2cc(Cl)ccc2O)c2ccc(N(CCC#N)CCC#N)cc2C)cc1 |  | 18.1 µM (inactive) | 20.7 µM (inactive) | 34 µM (inactive) |  | 53.7 µM (inactive) | 24.7 µM (inactive) | 25.3 µM (inactive) | 38.4 µM (inactive) | 19 µM (inactive) | 28.6 µM (inactive) | 41.5 µM (inactive) | 32.9 µM (inactive) | 18.6 µM (inactive) | 4.55 µM (inactive) | 16.8 µM (inactive) | 20.6 µM (inactive) | 23.9 µM (inactive) | 32.8 µM (inactive) | 12.1 µM (inactive)
NCCCN(CCCN)CCc1cn(C(=O)c2ccccc2)cn1 | 11.6 µM (inactive) | 7.82 µM (inactive) | 16.9 µM (inactive) | 5.73 µM (inactive) | 13.8 µM (inactive) | 2.19 µM (inactive) | 2.62 µM (inactive) | 14.2 µM (inactive) | 14.4 µM (inactive) | 4.86 µM (inactive) | 9.46 µM (inactive) | 16.2 µM (inactive) | 11.2 µM (inactive) | 13.2 µM (inactive) | 3.84 µM (inactive) | 7 µM (inactive) | 14.7 µM (inactive) | 4.19 µM (inactive) | 7.74 µM (inactive) | 
CNC(=O)C1CCCN1C(=O)C(Cc1c[nH]cn1)NC(=O)C1CCC(=O)N1 (stereo not given) | > 100 µM (inactive) | > 100 µM (inactive) | > 100 µM (inactive) | > 100 µM (inactive) | > 100 µM (inactive) | > 100 µM (inactive) | > 100 µM (inactive) | > 100 µM (inactive) | > 100 µM (inactive) | > 100 µM (inactive) | > 100 µM (inactive) | > 100 µM (inactive) | > 100 µM (inactive) | > 100 µM (inactive) | > 100 µM (inactive) | > 100 µM (inactive) | > 100 µM (inactive) | > 100 µM (inactive) | > 100 µM (inactive) | 
Cn1cnnc1SC(F)(F)c1nc2ccccc2o1 |  | > 100 µM (inactive) | > 100 µM (inactive) | > 100 µM (inactive) | > 100 µM (inactive) | > 100 µM (inactive) | > 100 µM (inactive) | > 100 µM (inactive) | > 100 µM (inactive) | > 100 µM (inactive) | > 100 µM (inactive) | > 100 µM (inactive) | > 100 µM (inactive) | > 100 µM (inactive) |  | > 100 µM (inactive) | > 100 µM (inactive) | > 100 µM (inactive) | > 100 µM (inactive) | > 100 µM (inactive)
COC(=O)c1c(C#N)[nH]c(-c2ccsc2)c1C(=O)OC | > 100 µM (inactive) | > 100 µM (inactive) | > 100 µM (inactive) | > 100 µM (inactive) | > 100 µM (inactive) | > 100 µM (inactive) | > 100 µM (inactive) | > 100 µM (inactive) | > 100 µM (inactive) | > 100 µM (inactive) | > 100 µM (inactive) | > 100 µM (inactive) | > 100 µM (inactive) | > 100 µM (inactive) |  | 39 µM (inactive) | > 100 µM (inactive) | > 100 µM (inactive) | > 100 µM (inactive) | > 100 µM (inactive)
O=C(/C=C/c1ccc(Cl)cc1)c1nc2ccccc2[nH]1 | 15.2 µM (inactive) | 1.6 µM (inactive) | 34.8 µM (inactive) | 12.2 µM (inactive) | 32.4 µM (inactive) |  | 2.22 µM (inactive) | 23.1 µM (inactive) | 42.5 µM (inactive) | 16.7 µM (inactive) | 25.4 µM (inactive) | 95.7 µM (inactive) | 21.7 µM (inactive) | 48.8 µM (inactive) |  | 40.2 µM (inactive) | > 100 µM (inactive) | 38.6 µM (inactive) | 17.6 µM (inactive) | 37.8 µM (inactive)
Nc1ccc(-c2nc3ccccc3s2)cc1F | 44.7 µM (inactive) | 28.5 µM (inactive) | > 100 µM (inactive) | 31.6 µM (inactive) | 46.6 µM (inactive) | 10.8 µM (inactive) | < 0.01 µM (active) | 13.6 µM (inactive) | 28.8 µM (inactive) | 15.5 µM (inactive) | 21.3 µM (inactive) |  | 38.5 µM (inactive) | 52.1 µM (inactive) |  | 20 µM (inactive) | 42 µM (inactive) | < 0.01 µM (active) | 30.7 µM (inactive) | 0.0775 µM (active)
